# Source: patent US8399676B2, “Piperidine derivatives” (Hoffman-La Roche Inc., priority 2009, dated 2013)
# Structures can show the parent of a compound that is named as a salt.
# Molecular target: T1, human HSL (Homo sapiens, UniProt Q05469)
# T1 construct: generate a full length human HSL ORF with a 3′-His6 tag; His6 (C); made in house; host or cells: High 5 insect cells (baculovirus, pFast-BAC)
# T1 sequence (Q05469 1-1076): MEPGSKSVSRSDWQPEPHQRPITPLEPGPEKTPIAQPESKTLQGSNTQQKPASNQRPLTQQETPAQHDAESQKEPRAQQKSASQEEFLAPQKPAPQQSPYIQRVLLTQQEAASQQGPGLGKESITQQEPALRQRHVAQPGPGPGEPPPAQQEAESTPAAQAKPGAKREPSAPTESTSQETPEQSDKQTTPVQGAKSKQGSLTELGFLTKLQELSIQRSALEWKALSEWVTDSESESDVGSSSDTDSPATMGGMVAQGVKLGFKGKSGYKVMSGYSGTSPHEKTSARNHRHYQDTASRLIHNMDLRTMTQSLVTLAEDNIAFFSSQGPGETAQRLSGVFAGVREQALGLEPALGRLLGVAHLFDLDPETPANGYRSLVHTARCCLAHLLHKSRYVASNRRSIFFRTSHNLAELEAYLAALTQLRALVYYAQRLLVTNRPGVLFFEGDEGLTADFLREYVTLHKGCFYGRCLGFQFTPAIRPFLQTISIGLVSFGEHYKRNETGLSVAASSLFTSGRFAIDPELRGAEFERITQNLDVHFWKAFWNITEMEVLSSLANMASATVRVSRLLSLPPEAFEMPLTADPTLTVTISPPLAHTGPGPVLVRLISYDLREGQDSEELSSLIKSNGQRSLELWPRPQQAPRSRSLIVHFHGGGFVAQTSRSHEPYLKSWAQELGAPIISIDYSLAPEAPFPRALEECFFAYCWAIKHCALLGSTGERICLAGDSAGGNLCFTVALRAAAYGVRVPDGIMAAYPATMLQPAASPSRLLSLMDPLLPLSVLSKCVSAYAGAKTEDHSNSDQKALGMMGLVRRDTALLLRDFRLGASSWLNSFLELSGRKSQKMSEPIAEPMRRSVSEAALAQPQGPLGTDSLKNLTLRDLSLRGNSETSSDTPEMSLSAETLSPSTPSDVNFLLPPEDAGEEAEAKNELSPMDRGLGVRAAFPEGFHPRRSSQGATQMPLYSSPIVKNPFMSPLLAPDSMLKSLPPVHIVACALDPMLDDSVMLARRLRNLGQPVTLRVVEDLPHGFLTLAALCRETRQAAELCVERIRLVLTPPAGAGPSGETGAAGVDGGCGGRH
# Test: Human Hormone-Sensitive Lipase (HSL) enzyme inhibition assay (colorimetric, DMPT substrate)
# Type: biochemical
# Conditions: read-out: HSL hum IC50
# How it was run: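 Full-length human HSL carrying a C-terminal His6 tag was expressed in High 5 insect cells via baculovirus and purified on Ni-NTA. Compounds from 3-fold DMSO series were mixed with 1.5 mM DMPT substrate suspension in 100 mM MOPS pH 7.2 with 0.2 mg/ml fatty acid-free BSA, then enzyme (15 ug/ml) was added for 20 minutes at 37 °C. Released thiol was detected with DTNB plus SDS/Triton X-100 (15 minutes, room temperature) at 405 nm.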
row,Structure (SMILES),IC50
1,"CC(C)c1ccc(NC(=O)C2(O)CCN(Cc3ccc(F)cc3)CC2)cc1 [Example 2, 1-(4-Fluoro-benzyl)-4-hydroxy-piperidine-4-carboxylic acid (4-isopropyl-phenyl)-amide]",270 nM
2,"CCc1ccc(NC(=O)C2(N)CCN(Cc3ccccc3OC(F)F)CC2)cc1 [Example 155, 4-Amino-1-(2-difluoromethoxy-benzyl)-piperidine-4-carboxylic acid (4-ethyl-phenyl)-amide]",110 nM
3,"NC1(C(=O)Nc2ccc(F)cc2)CCN(S(=O)(=O)c2ccccc2Cl)CC1 [Example 94, 4-Amino-1-(2-chloro-benzenesulfonyl)-piperidine-4-carboxylic acid (4-fluoro-phenyl)-amide]",780 nM
4,"CC(C)c1ccc(NC(=O)C2(N)CCN(Cc3ccc(C(F)(F)F)cc3)CC2)cc1 [Example 112, 4-Amino-1-(4-trifluoromethyl-benzyl)-piperidine-4-carboxylic acid (4-isopropyl-phenyl)-amide; hydrochloride]",300 nM
5,"CCc1ccc(NC(=O)C2(N)CCN(S(=O)(=O)c3c(F)cccc3F)CC2)cc1 [Example 142, 4-Amino-1-(2,6-difluoro-benzenesulfonyl)-piperidine-4-carboxylic acid (4-ethyl-phenyl)-amide]",100 nM
6,"CC(C)c1ccc(NC(=O)C2(N)CCN(C(=O)Nc3ccc(OC(F)(F)F)cc3)CC2)cc1 [Example 85, 4-Amino-piperidine-1,4-dicarboxylic acid 4-[(4-isopropyl-phenyl)-amide]1-[(4-trifluoromethoxy-phenyl)-amide]; hydrochloride]",120 nM
7,"CCCCS(=O)(=O)N1CCC(N)(C(=O)Nc2ccc(CC)cc2)CC1 [Example 143, 4-Amino-1-(butane-1-sulfonyl)-piperidine-4-carboxylic acid (4-ethyl-phenyl)-amide]",530 nM
8,"CCc1ccc(NC(=O)C2(N)CCN(S(=O)(=O)c3ccccc3F)CC2)cc1 [Example 134, 4-Amino-1-(2-fluoro-benzenesulfonyl)-piperidine-4-carboxylic acid (4-ethyl-phenyl)-amide]",60 nM
9,"CC(C)Oc1ccc(NC(=O)C2(O)CCN(Cc3ccc(OC(F)(F)F)cc3)CC2)cc1 [Example 14, 4-Hydroxy-1-(4-trifluoromethoxy-benzyl)-piperidine-4-carboxylic acid (4-isopropoxy-phenyl)-amide]",600 nM
10,"CC(C)c1ccc(NC(=O)C2(N)CCN(S(=O)(=O)c3cccc(Cl)c3)CC2)cc1 [Example 117, 4-Amino-1-(3-chloro-benzenesulfonyl)-piperidine-4-carboxylic acid (4-isopropyl-phenyl)-amide]",110 nM
11,"NC1(C(=O)Nc2ccc(OC(F)(F)F)cc2)CCN(S(=O)(=O)c2ccccc2Cl)CC1 [Example 103, 4-Amino-1-(2-chloro-benzenesulfonyl)-piperidine-4-carboxylic acid (4-trifluoromethoxy-phenyl)-amide]",30 nM
12,"CCc1ccc(NC(=O)C2(N)CCN(S(=O)(=O)c3ccc(Cl)nc3)CC2)cc1 [Example 148, 4-Amino-1-(6-chloro-pyridine-3-sulfonyl)-piperidine-4-carboxylic acid (4-ethyl-phenyl)-amide]",610 nM
13,"CCc1ccc(NC(=O)C2(N)CCN(S(=O)(=O)c3ccccc3OC(F)(F)F)CC2)cc1 [Example 149, 4-Amino-1-(2-trifluoromethoxy-benzenesulfonyl)-piperidine-4-carboxylic acid (4-ethyl-phenyl)-amide]",50 nM
14,"CCc1ccc(NC(=O)C2(N)CCN(Cc3ccccc3)CC2)cc1 [Example 151, 4-Amino-1-benzyl-piperidine-4-carboxylic acid (4-ethyl-phenyl)-amide]",540 nM
15,"CCc1ccc(NC(=O)C2(N)CCN(S(=O)(=O)c3ccccc3C)CC2)cc1 [Example 135, 4-Amino-1-(toluene-2-sulfonyl)-piperidine-4-carboxylic acid (4-ethyl-phenyl)-amide]",80 nM
16,"Cc1ccc(NC(=O)C2(N)CCN(C(=O)Nc3ccc(OC(F)(F)F)cc3)CC2)cc1 [Example 84, 4-Amino-piperidine-1,4-dicarboxylic acid 4-p-tolylamide 1-[(4-trifluoromethoxy-phenyl)-amide]; hydrochloride]",360 nM
17,"CCc1ccc(NC(=O)C2(N)CCN(Cc3ccccc3OC(F)(F)F)CC2)cc1 [Example 156, 4-Amino-1-(2-trifluoromethoxy-benzyl)-piperidine-4-carboxylic acid (4-ethyl-phenyl)-amide]",80 nM
18,"CCc1ccc(NC(=O)C2(N)CCN(Cc3ccc(C(C)C)cc3)CC2)cc1 [Example 158, 4-Amino-1-(4-isopropyl-benzyl)-piperidine-4-carboxylic acid (4-ethyl-phenyl)-amide]",460 nM
19,"CC(C)c1ccc(NC(=O)C2(O)CCN(C(=O)CC(C)(C)C)CC2)cc1 [Example 4, 1-(3,3-Dimethyl-butyryl)-4-hydroxy-piperidine-4-carboxylic acid (4-isopropyl-phenyl)-amide]",720 nM
20,"CCc1ccc(NC(=O)C2(N)CCN(S(=O)(=O)CC3CCCCC3)CC2)cc1 [Example 144, 4-Amino-1-cyclohexylmethanesulfonyl-piperidine-4-carboxylic acid (4-ethyl-phenyl)-amide]",140 nM
21,"CCN(C(=O)C1(O)CCN(S(=O)(=O)c2ccccc2F)CC1)c1ccc(OC(F)(F)F)cc1 [Example 75, 1-(2-Fluoro-benzenesulfonyl)-4-hydroxy-piperidine-4-carboxylic acid ethyl-(4-trifluoromethoxy-phenyl)-amide]",750 nM

# The remaining lines, values ahead:
row,IC50,Structure (SMILES)
1,410 nM,"CC(C)(C)c1ccc(NC(=O)C2(O)CCN(C(=O)Nc3ccc(C(F)(F)F)cc3)CC2)cc1 [Example 15, 4-Hydroxy-piperidine-1,4-dicarboxylic acid 4-[(4-tert-butyl-phenyl)-amide] 1-[(4-trifluoromethyl-phenyl)-amide]]"
2,220 nM,"Cc1ccccc1CN1CCC(O)(C(=O)Nc2ccc(C(C)(C)C)cc2)CC1 [Example 46, 4-Hydroxy-1-(2-methyl-benzyl)-piperidine-4-carboxylic acid (4-tert-butyl-phenyl)-amide]"
3,110 nM,"CC(C)(C)c1ccc(NC(=O)C2(O)CCN(Cc3ccccc3OC(F)(F)F)CC2)cc1 [Example 48, 4-Hydroxy-1-(2-trifluoromethoxy-benzyl)-piperidine-4-carboxylic acid (4-tert-butyl-phenyl)-amide]"
4,90 nM,"CCCCc1ccc(S(=O)(=O)N2CCC(N)(C(=O)Nc3ccc(CC)cc3)CC2)cc1 [Example 141, 4-Amino-1-(4-butyl-benzenesulfonyl)-piperidine-4-carboxylic acid (4-ethyl-phenyl)-amide]"
5,100 nM,"O=C(Nc1ccc(OC(F)(F)F)cc1)C1(O)CCN(S(=O)(=O)c2ccccc2F)CC1 [Example 61, 1-(2-Fluoro-benzenesulfonyl)-4-hydroxy-piperidine-4-carboxylic acid (4-trifluoromethoxy-phenyl)-amide]"
6,140 nM,"Cc1ccc(S(=O)(=O)N2CCC(O)(C(=O)N(C)c3ccc(OC(F)(F)F)cc3)CC2)cc1 [Example 69, 4-Hydroxy-1-(toluene-4-sulfonyl)-piperidine-4-carboxylic acid methyl-(4-trifluoromethoxy-phenyl)-amide]"
7,170 nM,"COc1ccc(S(=O)(=O)N2CCC(O)(C(=O)Nc3ccc(C(C)(C)C)cc3)CC2)cc1 [Example 19, 4-Hydroxy-1-(4-methoxy-benzenesulfonyl)-piperidine-4-carboxylic acid (4-tert-butyl-phenyl)-amide]"
8,370 nM,"Cc1ccc(NC(=O)C2(N)CCN(C(=O)Nc3ccc(C(C)(C)C)cc3)CC2)cc1 [Example 88, 4-Amino-piperidine-1,4-dicarboxylic acid 1-[(4-tert-butyl-phenyl)-amide]-4-p-tolylamide; hydrochloride]"
9,60 nM,"CC(C)(C)c1ccc(NC(=O)C2(O)CCN(S(=O)(=O)c3ccccc3Cl)CC2)cc1 [Example 17, 1-(2-Chloro-benzenesulfonyl)-4-hydroxy-piperidine-4-carboxylic acid (4-tert-butyl-phenyl)-amide]"
